From patent US9409952B2, “Peptide-compound cyclization method” (Chugai Seiyaku Kabushiki Kaisha, priority 2011, dated 2016) come the findings set out here.

Positions of bridges follow the written chain, without caps; N, C: chain ends. Non-standard residues stand in square brackets, D forms with d. Residues, ends and D or L forms follow the SMILES beside them. *: point of attachment. NMeF = CN[C@@H](Cc1ccccc1)C(=O)O; NMeI = CC[C@H](C)[C@H](NC)C(=O)O; NMeL = CN[C@@H](CC(C)C)C(=O)O; NMeV = CN[C@H](C(=O)O)C(C)C; NMeA = CN[C@@H](C)C(=O)O; Piperidide = C1CCN(*)CC1; dNMeA = CN[C@H](C)C(=O)O; Sar = CNCC(=O)O; tBu = CC(C)(C)*

The first data set in a line: PAMPA (parallel artificial membrane permeability assay). The settings on record: PAMPA, pH 6.5. Format: in vitro ADME. How it is done: 4 μL of a phospholipid-organic solvent solution composed of 10% (w/v) of egg lecithin, 0.5% (w/v) of cholesterol and dodecane (all purchased from Fluka) was added to a Millipore 96-well membrane filter (hydrophobic PVDF (polyvinylidene difluoride), pore size 0.45 microm) (purchased from Millipore Japan) to make an artificial phospholipid membrane.
A DMSO solution containing the compound at a concentration of 10 mM was added in a percentage of 0.5% (v/v) to a 50 mM MOPSO buffer, pH 6.5, containing 5.0% (w/v) of glycocholic acid, and 330 μL of the mixture was added to a 96-well plate made of Teflon (donor plate). The above artificial phospholipid membrane plate was attached onto the donor plate, and 280 μL of a solution obtained by adding DMSO in a percentage of 0.5% (v/v) to a 50 mM MOPSO buffer, pH 6.5, containing 5.0% (w/w) of glycocholic acid was added onto the artificial phospholipid membrane (acceptor plate). These plates were allowed to stand at 37° C. for 18 hours, after which the concentrations of the compound in the solutions in the donor plate and the acceptor plate were measured by LC/MS or LC/UV, and the membrane permeation rate of the compound (Pe) was calculated by the following formulas (1) and (2), where t is the testing time, A is the membrane filter area, VD is the amount of the donor solution, VA is the amount of the acceptor solution, CD,t is the concentration of the compound in the donor solution at the time t, and CA,t is the concentration of the compound in the acceptor solution at the time t.
For orientation: In PAMPA a lipid-coated filter parts donor from acceptor wells.
Turning to `CC[C@H](C)[C@H]1C(=O)N[C@H](C(=O)N2CCCCC2)CC(=O)N[C@@H](C)C(=O)N(C)[C@@H](C)C(=O)N(C)[C@@H](Cc2ccccc2)C(=O)N(C)[C@@H](CC(C)C)C(=O)N[C@@H]([C@@H](C)O)C(=O)N(C)CC(=O)N(C)[C@@H](CC(C)C)C(=O)N[C@@H](COC(C)(C)C)C(=O)N1C` [DP-36] (A[NMeA][NMeF][NMeL]T[Sar][NMeL]S(tBu)[NMeI]D-Piperidide; lactam N-10), the Papp at 18 hours, 50 µM was determined as 27 ×10⁻⁶ cm/s.
Regarding `CC[C@H](C)[C@H]1C(=O)N[C@H](C(=O)N2CCCCC2)CC(=O)N(C)CC(=O)N(C)[C@@H](CC(C)C)C(=O)N[C@@H](C)C(=O)N(C)[C@@H](CC(C)C)C(=O)N(C)[C@@H](Cc2ccccc2)C(=O)N(C)[C@@H](CC(C)C)C(=O)N(C)[C@@H](Cc2ccccc2)C(=O)N[C@@H]([C@@H](C)O)C(=O)N(C)[C@@H](C)C(=O)N1C` [DP-70] ([Sar][NMeL]A[NMeL][NMeF][NMeL][NMeF]T[NMeA][NMeI]D-Piperidide; lactam N-11), the Papp at 18 hours, 50 µM was 40 ×10⁻⁶ cm/s.
Consider `CC[C@H](C)[C@H]1C(=O)N[C@H](C(=O)N2CCCCC2)CC(=O)N[C@H](C)C(=O)N[C@@H]([C@@H](C)O)C(=O)N(C)[C@@H](C)C(=O)N(C)[C@@H](C(C)C)C(=O)N[C@@H](Cc2ccccc2)C(=O)N(C)CC(=O)N(C)[C@@H](CC(C)C)C(=O)N[C@@H](C)C(=O)N1C` [DP-71] ([dA]T[NMeA][NMeV]F[Sar][NMeL]A[NMeI]D-Piperidide; lactam N-10), for which the Papp at 18 hours, 50 µM stood at 5.4 ×10⁻⁶ cm/s.
On to `CC(C)C[C@@H]1NC(=O)[C@H](Cc2ccccc2)N(C)C(=O)[C@@H](C(C)C)NC(=O)C[C@@H](C(=O)N2CCCCC2)NC(=O)[C@H](C(C)C)N(C)C(=O)[C@H](Cc2ccccc2)N(C)C(=O)[C@H](COC(C)(C)C)NC(=O)[C@H](CC(C)C)N(C)C(=O)CN(C)C(=O)[C@H]([C@@H](C)O)NC(=O)[C@H](CC(C)C)N(C)C1=O` [DP-149] ([dV][NMeF]L[NMeL]T[Sar][NMeL]S(tBu)[NMeF][NMeV]D-Piperidide; lactam N-11), for which the Papp at 18 hours, 50 µM worked out at 17 ×10⁻⁶ cm/s.
The compound `CC[C@H](C)[C@@H]1NC(=O)[C@H](CC(C)C)N(C)C(=O)[C@H](Cc2ccccc2)N(C)C(=O)[C@H]([C@@H](C)O)NC(=O)[C@H](CC(C)C)N(C)C(=O)[C@H](CC(C)C)N(C)C(=O)[C@H](C)N(C)C(=O)C[C@@H](C(=O)N2CCCCC2)NC(=O)[C@H](CC(C)C)NC(=O)[C@H](Cc2ccccc2)N(C)C(=O)[C@H](C)N(C)C1=O` [DP-154] ([NMeA][NMeL][NMeL]T[NMeF][NMeL]I[NMeA][NMeF]LD-Piperidide; lactam N-11) yielded a Papp at 18 hours, 50 µM of 9.3 ×10⁻⁶ cm/s.
Take `CC[C@H](C)[C@H]1C(=O)N[C@@H]([C@@H](C)O)C(=O)N[C@@H](Cc2ccccc2)C(=O)N2CCC[C@H]2C(=O)NCC(=O)N(C)[C@@H](CC(C)C)C(=O)N[C@H](C(=O)N(C)[C@@H](Cc2ccccc2)C(=O)N[C@@H](C)C(=O)N2CCCCC2)CC(=O)N[C@H](C(C)C)C(=O)N[C@@H](Cc2ccccc2)C(=O)N(C)[C@@H](CC(C)C)C(=O)N[C@@H](CC(C)C)C(=O)N1C` [DP-278] ([dV]F[NMeL]L[NMeI]TFPG[NMeL]D[NMeF]A-Piperidide; lactam N-11): the Papp at 18 hours, 50 µM stood at 1.5 ×10⁻⁶ cm/s.
`CC[C@H](C)[C@@H]1NC(=O)[C@H](C)N(C)C(=O)C[C@@H](C(=O)N(C)[C@@H](Cc2ccccc2)C(=O)N[C@@H](C)C(=O)N2CCCCC2)NC(=O)[C@H](Cc2ccccc2)N(C)C(=O)CN(C)C(=O)[C@H]([C@@H](C)O)NC(=O)[C@H](C)N(C)C(=O)[C@H](C(C)C)N(C)C(=O)[C@H](CC(C)C)N(C)C(=O)[C@H](Cc2ccccc2)NC(=O)[C@H](CC(C)C)N(C)C1=O` [DP-279] ([NMeA]I[NMeL]F[NMeL][NMeV][NMeA]T[Sar][NMeF]D[NMeF]A-Piperidide; lactam N-11) showed a Papp at 18 hours, 50 µM of 15 ×10⁻⁶ cm/s.
On to `CC[C@H](C)[C@@H]1NC(=O)[C@@H](C)N(C)C(=O)C[C@@H](C(=O)N(C)[C@@H](Cc2ccccc2)C(=O)N[C@@H](C)C(=O)N2CCCCC2)NC(=O)[C@H](Cc2ccccc2)NC(=O)[C@H]([C@@H](C)O)NC(=O)[C@@H]2CCCN2C(=O)CNC(=O)[C@H](CC(C)C)N(C)C(=O)[C@H](Cc2ccccc2)N(C)C(=O)[C@H](CC(C)C)N(C)C(=O)[C@H](CC(C)C)NC1=O` [DP-283] ([dNMeA]IL[NMeL][NMeF][NMeL]GPTFD[NMeF]A-Piperidide; lactam N-11), for which the Papp at 18 hours, 50 µM turned out to be 1.5 ×10⁻⁶ cm/s.

The data set is the same for the next values; noted with them: PAMPA; membrane permeation rate (Pe); 50 mM MOPSO buffer pH 6.5 with 5.0% glycocholic acid, 37° C., 18 hours; read-out: iPAMPA Pe.
On to `CC(C)C[C@@H]1NC(=O)[C@H](Cc2ccccc2)N(C)C(=O)[C@H](C)NC(=O)[C@H](C)N(C)C(=O)[C@H]([C@@H](C)O)NC(=O)[C@H](CC(C)C)N(C)C(=O)[C@H](C)N(C)C(=O)C[C@@H](C(=O)N2CCCCC2)NC(=O)[C@H](CC(C)C)N(C)C(=O)[C@H](Cc2ccccc2)N(C)C(=O)[C@H](CC(C)C)N(C)C1=O` [DP-156] ([NMeA][NMeL]T[NMeA]A[NMeF]L[NMeL][NMeF][NMeL]D-Piperidide; lactam N-11), for which the Papp at 18 hours, 50 µM was 24 ×10⁻⁶ cm/s.
As to `CC(C)C[C@H]1C(=O)N(C)[C@@H](Cc2ccccc2)C(=O)N(C)[C@@H](Cc2ccccc2)C(=O)N[C@@H]([C@@H](C)O)C(=O)N(C)[C@@H](C)C(=O)N(C)[C@@H](CC(C)C)C(=O)N[C@H](C(=O)N2CCCCC2)CC(=O)N(C)[C@H](C)C(=O)N(C)[C@@H](CC(C)C)C(=O)N(C)[C@@H](CC(C)C)C(=O)N[C@@H](C)C(=O)N1C` [DP-166] ([dNMeA][NMeL][NMeL]A[NMeL][NMeF][NMeF]T[NMeA][NMeL]D-Piperidide; lactam N-11), the Papp at 18 hours, 50 µM stood at 55 ×10⁻⁶ cm/s.
For `CC[C@H](C)[C@@H]1NC(=O)[C@H](C)NC(=O)C[C@@H](C(=O)N(C)[C@@H](Cc2ccccc2)C(=O)N[C@@H](C)C(=O)N2CCCCC2)NC(=O)[C@H](Cc2ccccc2)N(C)C(=O)[C@H](CC(C)C)N(C)C(=O)[C@H](C)N(C)C(=O)[C@H]([C@@H](C)O)NC(=O)[C@H](Cc2ccccc2)N(C)C(=O)[C@H](CC(C)C)N(C)C(=O)[C@H](C)N(C)C(=O)[C@H](CC(C)C)N(C)C1=O` [DP-178] (AI[NMeL][NMeA][NMeL][NMeF]T[NMeA][NMeL][NMeF]D[NMeF]A-Piperidide; lactam N-11), the Papp at 18 hours, 50 µM is 1 ×10⁻⁶ cm/s.
On to `CC(C)C[C@H]1C(=O)N(C)[C@@H](CC(C)C)C(=O)N(C)[C@@H](Cc2ccccc2)C(=O)N[C@@H]([C@@H](C)O)C(=O)N(C)[C@@H](C)C(=O)N(C)[C@@H](CC(C)C)C(=O)N(C)[C@@H](Cc2ccccc2)C(=O)N[C@H](C(=O)N(C)[C@@H](Cc2ccccc2)C(=O)N[C@@H](C)C(=O)N2CCCCC2)CC(=O)N(C)[C@H](C)C(=O)N(C)[C@@H](CC(C)C)C(=O)N[C@@H](C)C(=O)N1C` [DP-184] ([dNMeA][NMeL]A[NMeL][NMeL][NMeF]T[NMeA][NMeL][NMeF]D[NMeF]A-Piperidide; lactam N-11), for which the Papp at 18 hours, 50 µM worked out at 1.3 ×10⁻⁶ cm/s.
For the compound `CC[C@H](C)[C@@H]1NC(=O)[C@H](CC(C)C)N(C)C(=O)[C@H](C(C)C)N(C)C(=O)[C@H](Cc2ccccc2)N(C)C(=O)[C@H](CC(C)C)NC(=O)[C@H](C)N(C)C(=O)[C@H](C)N(C)C(=O)[C@H]([C@@H](C)O)NC(=O)[C@H](Cc2ccccc2)N(C)C(=O)CN(C)C(=O)C[C@@H](C(=O)N(C)[C@@H](Cc2ccccc2)C(=O)N[C@@H](C)C(=O)N2CCCCC2)NC1=O` [DP-186] ([Sar][NMeF]T[NMeA][NMeA]L[NMeF][NMeV][NMeL]ID[NMeF]A-Piperidide; lactam N-11), the Papp at 18 hours, 50 µM is 37 ×10⁻⁶ cm/s.
Consider `CC(C)C[C@H]1C(=O)N[C@H](C(=O)N(C)[C@@H](Cc2ccccc2)C(=O)N[C@@H](C)C(=O)N2CCCCC2)CC(=O)N(C)[C@@H](C)C(=O)N[C@@H]([C@@H](C)O)C(=O)N(C)[C@@H](Cc2ccccc2)C(=O)N(C)[C@@H](CC(C)C)C(=O)N(C)[C@@H](CC(C)C)C(=O)N[C@@H](C)C(=O)N(C)[C@@H](Cc2ccccc2)C(=O)N(C)[C@@H](CC(C)C)C(=O)N1C` [DP-192] ([NMeA]T[NMeF][NMeL][NMeL]A[NMeF][NMeL][NMeL]D[NMeF]A-Piperidide; lactam N-10), for which the Papp at 18 hours, 50 µM stood at 0.64 ×10⁻⁶ cm/s.
For the compound `CC(C)C[C@H]1C(=O)N[C@H](C(=O)N(C)[C@@H](Cc2ccccc2)C(=O)N(C)[C@@H](Cc2ccccc2)C(=O)N[C@@H](C)C(=O)N2CCCCC2)CC(=O)N(C)[C@@H](C)C(=O)N(C)[C@@H](C)C(=O)N(C)[C@@H](Cc2ccccc2)C(=O)N[C@@H]([C@@H](C)O)C(=O)N(C)[C@@H](C)C(=O)N(C)[C@@H](CC(C)C)C(=O)N(C)[C@@H](CC(C)C)C(=O)N[C@@H](C(C)C)C(=O)N1C` [DP-206] ([NMeA][NMeA][NMeF]T[NMeA][NMeL][NMeL]V[NMeL]D[NMeF][NMeF]A-Piperidide; lactam N-10), the Papp at 18 hours, 50 µM was determined as 9 ×10⁻⁶ cm/s.
As to `CC(C)C[C@H]1C(=O)N[C@H](C(=O)N(C)[C@@H](Cc2ccccc2)C(=O)N(C)[C@@H](Cc2ccccc2)C(=O)N[C@@H](C)C(=O)N2CCCCC2)CC(=O)N[C@H](C(C)C)C(=O)N(C)[C@@H](Cc2ccccc2)C(=O)N(C)[C@@H](CC(C)C)C(=O)N[C@@H]([C@@H](C)O)C(=O)N(C)[C@@H](C)C(=O)N(C)[C@@H](CC(C)C)C(=O)N[C@@H](C(C)C)C(=O)N1C` [DP-210] ([dV][NMeF][NMeL]T[NMeA][NMeL]V[NMeL]D[NMeF][NMeF]A-Piperidide; lactam N-9), the Papp at 18 hours, 50 µM worked out at 1.8 ×10⁻⁶ cm/s.
